Reference: US8980223B2, “Methods of preventing ischemic injury using peripheral nociceptive stimulation” (University of Cincinnati, priority 2009, dated 2015)
Entries after “also recorded” stand apart in the source; their conditions may differ. Values belong to the compound of their own block, whether it stands above or below them.

Experiments:
β-adrenergic receptor = system: β-adrenergic receptor; design: species or system mice; conditions: mouse, in vivo
Experimental: The mice then underwent either sham treatment or electrical stimulation (ES) followed by the ischemia/reperfusion procedure.
A lateral thoracotomy (1.5 cm incision between the second and third ribs was performed to provide exposure of the left anterior descending coronary artery (LAD). Vascular bundles in the vicinity were coagulated using a microcoagulator (Medical Industries Inc, St. Petersburg Fla.). An 8-O nylon suture was placed around the LAD 2-3 mm from the tip of the left auricle and a piece of soft silicon tubing (0.64 mm ID, 1.19 mm OD) was placed over the artery. Coronary occlusion was achieved by tightening and tying the suture. Coronary occlusion was for 45 minutes, unless indicated otherwise. At the end of the occlusion, the suture was untied and left in place. Ischemia was confirmed by visual observation of cyanosis and by continuous ECG monitoring (QRS complex widening, T wave inversion and ST segment changes); reperfusion was confirmed by reversal of these effects. […]

protein kinase C(PKC) = experiment: Chelerythrine before electrical stimulation and ischemia/reperfusion, infarct size; assay type: in vivo, mice; conditions: chelerythrine plus electrical stimulation compared with vehicle alone plus electrical stimulation
Excerpt: FIG. 3C presents data from wild-type mice treated with chelerythrine prior to sham treatment or electrical stimulation followed by the ischemia/reperfusion procedure. Chelerythrine is a relatively selective general protein kinase C(PKC) inhibitor. Most previously described forms of preconditioning or postconditioning require PKC activation in cardiomyocytes. Typically this is indicative of activation and/or repression of specific PKC isoforms in the hearts. Infarct size as a percentage of risk region was assessed and is indicated. The hatched bar presents data from mice treated with chelerythrine and subject to sham treatment (chelerythrine control). The dotted bar presents data from mice treated with vehicle alone and electrically stimulated (vehicle ES). […]
A previously described mouse model of ischemia and reperfusion (I/R) injury in vivo was used (Ren et al. (2004) J. Surg Res. 121(1):120-129; Fan et al (2005)Circulation 111(14):1792-1799; Zhou et al (2007)Cardiovascular Research 75(3) 487-497; and Diwan et a/(2007) J. Clinical Investigation 117(10):2825-2833, herein incorporated by reference in their entirety). […] All mice were continuously monitored by electrocardiography (ECG) (DigiMed Sinus Rhythm Analyzer, Micro-Med Inc), and mice without evidence of ischemia and timely reperfusion were excluded from the studies. […]

TRPV2 = biological target: T1, TRPV2 (Mus musculus, UniProt Q9WTR1); experiment: Topical probenecid in mouse ischemia/reperfusion model, infarct size; assay type: in vivo, mice; conditions: topical probenecid application versus control animals; p<0.07
T1 construct: mice that received topical probenecid application; from tissue; host or cells: living mice (topical application to skin)
T1 sequence (Q9WTR1 1-756): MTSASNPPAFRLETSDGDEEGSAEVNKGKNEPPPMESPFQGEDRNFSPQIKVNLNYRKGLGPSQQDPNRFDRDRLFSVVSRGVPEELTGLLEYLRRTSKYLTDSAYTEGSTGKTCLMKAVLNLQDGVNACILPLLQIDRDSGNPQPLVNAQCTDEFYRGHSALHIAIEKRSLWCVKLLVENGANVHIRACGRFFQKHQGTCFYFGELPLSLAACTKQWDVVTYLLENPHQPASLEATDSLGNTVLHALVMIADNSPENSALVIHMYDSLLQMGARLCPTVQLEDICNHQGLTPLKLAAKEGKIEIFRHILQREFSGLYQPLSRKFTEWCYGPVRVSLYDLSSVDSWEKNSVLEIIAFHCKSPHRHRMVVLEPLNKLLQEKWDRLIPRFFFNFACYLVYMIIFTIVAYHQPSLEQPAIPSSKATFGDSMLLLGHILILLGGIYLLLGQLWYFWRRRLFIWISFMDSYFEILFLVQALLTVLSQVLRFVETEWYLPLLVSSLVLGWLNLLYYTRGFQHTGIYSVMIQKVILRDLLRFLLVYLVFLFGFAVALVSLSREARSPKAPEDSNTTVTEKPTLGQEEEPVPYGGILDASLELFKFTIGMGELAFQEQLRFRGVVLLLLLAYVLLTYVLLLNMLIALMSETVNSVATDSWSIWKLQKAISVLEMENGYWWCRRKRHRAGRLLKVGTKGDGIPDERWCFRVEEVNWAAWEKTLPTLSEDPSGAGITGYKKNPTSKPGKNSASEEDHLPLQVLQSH
Excerpt: FIG. 11 presents a graph of infarct size as a percent of risk area in mice that received topical probenecid application (empty bars) or sham treatments (hatched bars).
(§1) A previously described mouse model of ischemia and reperfusion (I/R) injury in vivo was used (Ren et al. (2004) J. Surg Res. 121(1):120-129; Fan et al (2005)Circulation 111(14):1792-1799; Zhou et al (2007)Cardiovascular Research 75(3) 487-497; and Diwan et a/(2007) J. Clinical Investigation 117(10):2825-2833, herein incorporated by reference in their entirety). Mice were anesthetized with sodium pentobarbital (90 mg/kg ip), intubated with PE 90 tubing and ventilated using a mouse miniventilator (Harvard Apparatus, Holliston, Mass.). All mice were continuously monitored by electrocardiography (ECG) (DigiMed Sinus Rhythm Analyzer, Micro-Med Inc), and mice without evidence of ischemia and timely reperfusion were excluded from the studies. […]
(§2) Mice were euthanized either 4 or 24 hours after reperfusion and infarct size determination and imaging were performed by previously described methods (Ren et al. (2004) J. Surg Res. 121(1):120-129 and Guo et al (1998) Am J. Physiology 275(4 Pt 2):H1375-1387, herein incorporated by reference in their entirety). […] Infarct size was determined by the method of Fishbein et al (1981) Am Heart J 101(5):593-600, herein incorporated by reference in its entirety. […]

[1] = system: murine ischemia/reperfusion model of myocardial infarction; experiment: Mouse ischemia/reperfusion model, topical capsaicin 15 min prior to coronary occlusion, infarct size; assay type: in vivo, mice
TRPV1 = biological target: T2, TRPV1 (Mus musculus, UniProt Q704Y3); experiment: Topical capsaicin before ischemia/reperfusion in wild-type versus TRPV1 knock-out mice, infarct size; assay type: in vivo; conditions: capsaicin topically to the abdomen prior to ischemia and reperfusion, compared to TRPVKO mice
T2 construct: data from wild-type mice topically treated with capsaicin administered to the abdomen; from tissue; host or cells: living mice; skin nociceptors (C-fibers) of the abdomen
Excerpt: Infarct size as a percent of risk region is presented on the y-axis. The first bar presents data from wild-type mice topically treated with capsaicin administered to the abdomen prior to surgical induction of ischemia and reperfusion (WT, Capsaicin, hatched bar). The second bar presents data from TRPV 1 knockout mice topically treated with capsaicin administered to the abdomen prior to surgical induction of ischemia and reperfusion (TRPVKO, Capsaicin, dotted bar). The third bar presents data from TRPV 1 knockout mice subjected to sham treatment prior to surgical induction of ischemia and reperfusion (TRPVKO No capsaicin, empty bar).

[2] = system: murine ischemia/reperfusion model of myocardial infarction; experiment: Topical capsaicin during ischemia or after reperfusion, infarct size; assay type: in vivo, mice; conditions: p<0.01
[3] = system: peripheral C-fiber nociceptors; experiment: Lidocaine before remote electrical stimulation and ischemia/reperfusion, infarct size; assay type: in vivo, mice; conditions: 2% lidocaine, 10 μl s.c., prior to electrical stimulation and ischemia; compared with vehicle ES
Experimental: as §1, §2

T2 sequence (Q704Y3 whole entry, the tested form may be a part): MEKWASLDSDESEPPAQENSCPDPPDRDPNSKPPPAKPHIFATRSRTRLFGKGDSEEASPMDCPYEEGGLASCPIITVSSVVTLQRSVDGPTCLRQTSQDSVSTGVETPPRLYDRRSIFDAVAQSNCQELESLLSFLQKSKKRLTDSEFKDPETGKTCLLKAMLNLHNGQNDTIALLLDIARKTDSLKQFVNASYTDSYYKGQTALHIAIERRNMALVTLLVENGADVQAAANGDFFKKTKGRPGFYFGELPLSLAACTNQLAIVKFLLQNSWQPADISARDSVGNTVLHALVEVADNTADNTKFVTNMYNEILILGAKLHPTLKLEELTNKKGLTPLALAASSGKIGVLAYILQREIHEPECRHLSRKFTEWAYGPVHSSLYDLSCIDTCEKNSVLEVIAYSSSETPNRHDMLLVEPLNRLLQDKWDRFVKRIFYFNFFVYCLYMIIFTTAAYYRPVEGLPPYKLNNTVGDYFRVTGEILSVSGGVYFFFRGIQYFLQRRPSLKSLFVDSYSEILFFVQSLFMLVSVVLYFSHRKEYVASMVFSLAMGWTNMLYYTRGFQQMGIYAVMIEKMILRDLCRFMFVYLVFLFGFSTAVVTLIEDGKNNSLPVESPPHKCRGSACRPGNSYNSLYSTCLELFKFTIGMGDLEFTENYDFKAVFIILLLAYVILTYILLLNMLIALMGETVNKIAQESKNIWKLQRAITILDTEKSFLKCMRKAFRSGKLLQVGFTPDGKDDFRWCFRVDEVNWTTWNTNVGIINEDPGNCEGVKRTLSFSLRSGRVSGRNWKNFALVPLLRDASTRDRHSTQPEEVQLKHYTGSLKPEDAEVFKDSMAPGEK

SMILES: CC(C)NCC(O)COc1cccc2ccccc12 (stereo not drawn) [propanolol]
Infarct size as a percentage of risk region (β-adrenergic receptor): significantly higher

SMILES: COc1ccc2c(c[n+](C)c3c4cc5c(cc4ccc23)OCO5)c1OC [chelerythrine]
Infarct size as a percentage of risk region (protein kinase C(PKC)): reduced inhibition of ischemia-related tissue damage

infarct size as a percent of risk region (TRPV2): significantly reduced
SMILES: CCCN(CCC)S(=O)(=O)c1ccc(C(=O)O)cc1 [probenecid]

infarct size as a percent of risk region (TRPV1): reduced myocardial infarct size
SMILES: COc1cc(CNC(=O)CCCC/C=C/C(C)C)ccc1O [capsaicin, (6E)-N-[(4-Hydroxy-3-methoxyphenyl)methyl]-8-methyl-6-nonenamide]
reduction of infarct size ([1]; remote pre-conditioning, stimulus given 15 minutes prior to the ischemia, 45 min coronary occlusion, versus sham, n=6): 85%
Infarct size as a percent of the risk region ([1]; remote pre-treatment prior to ischemia/reperfusion versus sham, P<0.01): substantial reduction in infarct size
infarct size as a percent of risk area ([2]; topical capsaicin application after reperfusion (postCON) versus sham): significantly reduces infarct size
infarct size as a percent of risk area ([2]; topical capsaicin application during ischemia (conditioning) versus sham): significantly reduces infarct size

SMILES: CCN(CC)CC(=O)Nc1c(C)cccc1C [lidocaine]
infarct size as a percent of risk region [3]: no significant cardioprotection relative to controls; also recorded: significantly higher percentage of risk region
